ChEMBL document CHEMBL1201862, “PubChem BioAssay data set” (2004)
Activity calls are given as the source filed them.

Assays:
[1] = target: T1, Polyadenylate-binding protein 1 (Homo sapiens, UniProt P11940); assay: PABP1 MLLE–PAM2 interaction inhibitors, dose response, miRNA deadenylation inhibitor project, biochemical, fluorescence polarization, Cy5-PAM2 peptide, secondary (AID 602260); type: functional; conditions: read-out: IC50_Mean
[2] = target: T1, Polyadenylate-binding protein 1; assay: PABP1 MLLE–PAM2 binding inhibitor potency, dose response, biochemical, fluorescence polarization, FITC-PAM2 peptide (AID 602259); type: functional; conditions: read-out: IC50_Mean
Cytochrome P450 2C19 = Cytochrome P450 2C19 (Homo sapiens, UniProt P33261); assay: Cytochrome panel assay with activity outcomes. Panel member name: p450-cyp2c19 Compounds with AC50 equal or less than 10 uM are considered active; type: functional
Sequence of Cytochrome P450 2C19 (P33261 whole entry): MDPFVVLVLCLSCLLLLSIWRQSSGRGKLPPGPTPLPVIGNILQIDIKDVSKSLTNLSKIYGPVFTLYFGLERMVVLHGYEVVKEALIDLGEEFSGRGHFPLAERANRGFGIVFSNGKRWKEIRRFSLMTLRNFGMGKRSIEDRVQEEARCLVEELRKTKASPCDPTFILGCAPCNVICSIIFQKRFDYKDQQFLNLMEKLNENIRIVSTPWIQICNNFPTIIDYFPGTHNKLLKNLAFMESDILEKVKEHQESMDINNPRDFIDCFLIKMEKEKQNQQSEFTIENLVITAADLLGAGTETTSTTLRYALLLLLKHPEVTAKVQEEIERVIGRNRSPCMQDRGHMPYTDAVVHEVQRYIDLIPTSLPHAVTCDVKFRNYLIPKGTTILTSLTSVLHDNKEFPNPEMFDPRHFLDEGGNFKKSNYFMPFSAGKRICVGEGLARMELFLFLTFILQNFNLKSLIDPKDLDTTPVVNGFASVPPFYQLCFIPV

Cytochrome P450 2D6 = Cytochrome P450 2D6 (Homo sapiens, UniProt P10635);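 further: CYP2D6 member of a cytochrome P450 panel assay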
Sequence of Cytochrome P450 2D6 (P10635 whole entry): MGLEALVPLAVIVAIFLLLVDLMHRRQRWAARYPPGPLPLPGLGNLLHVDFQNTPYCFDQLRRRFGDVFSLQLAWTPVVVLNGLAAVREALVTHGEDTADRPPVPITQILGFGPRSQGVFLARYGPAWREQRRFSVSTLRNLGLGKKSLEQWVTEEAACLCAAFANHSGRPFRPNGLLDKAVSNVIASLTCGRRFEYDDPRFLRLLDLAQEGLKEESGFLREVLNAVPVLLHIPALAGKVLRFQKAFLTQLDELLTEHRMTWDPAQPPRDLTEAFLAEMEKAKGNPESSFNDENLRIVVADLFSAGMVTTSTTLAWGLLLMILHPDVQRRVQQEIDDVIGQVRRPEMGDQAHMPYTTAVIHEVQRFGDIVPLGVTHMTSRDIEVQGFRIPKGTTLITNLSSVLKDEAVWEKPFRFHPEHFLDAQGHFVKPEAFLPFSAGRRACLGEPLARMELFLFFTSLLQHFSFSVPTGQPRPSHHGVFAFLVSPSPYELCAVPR

[3] = target: T2, Heat shock factor protein 1 (Mus musculus, UniProt P38532); assay: HSF1 potentiators in luciferase reporter cells, confirmation, cell-based, NIH3T3, luminescence, dose retest (AID 435004); type: functional;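 further: stress induced by proteasome inhibitor MG132 added 30 min after compound; luciferase reporter driven by HSF1 response element in NIH3T3 cells; actives raise luminescence as potentiators of the MG132 stress response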
T2 sequence (P38532 whole entry): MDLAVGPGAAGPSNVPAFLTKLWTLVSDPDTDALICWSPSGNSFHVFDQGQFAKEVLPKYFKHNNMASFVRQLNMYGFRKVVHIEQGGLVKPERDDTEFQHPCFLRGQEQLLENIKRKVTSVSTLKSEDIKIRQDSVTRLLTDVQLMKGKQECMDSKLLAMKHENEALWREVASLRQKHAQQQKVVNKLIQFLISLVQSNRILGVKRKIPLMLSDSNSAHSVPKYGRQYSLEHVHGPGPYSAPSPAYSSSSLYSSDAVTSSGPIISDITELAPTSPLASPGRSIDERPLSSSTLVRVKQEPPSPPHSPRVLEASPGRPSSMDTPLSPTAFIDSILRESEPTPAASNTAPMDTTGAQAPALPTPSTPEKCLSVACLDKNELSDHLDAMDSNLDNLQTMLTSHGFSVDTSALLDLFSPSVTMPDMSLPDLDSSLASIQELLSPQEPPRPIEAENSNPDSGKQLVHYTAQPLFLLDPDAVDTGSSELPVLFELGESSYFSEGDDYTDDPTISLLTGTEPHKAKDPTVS

Cytochrome P450 3A4 = Cytochrome P450 3A4 (Homo sapiens, UniProt P08684);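 further: CYP3A4 tested as one member of a cytochrome P450 panel screen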
Sequence of Cytochrome P450 3A4 (P08684 whole entry): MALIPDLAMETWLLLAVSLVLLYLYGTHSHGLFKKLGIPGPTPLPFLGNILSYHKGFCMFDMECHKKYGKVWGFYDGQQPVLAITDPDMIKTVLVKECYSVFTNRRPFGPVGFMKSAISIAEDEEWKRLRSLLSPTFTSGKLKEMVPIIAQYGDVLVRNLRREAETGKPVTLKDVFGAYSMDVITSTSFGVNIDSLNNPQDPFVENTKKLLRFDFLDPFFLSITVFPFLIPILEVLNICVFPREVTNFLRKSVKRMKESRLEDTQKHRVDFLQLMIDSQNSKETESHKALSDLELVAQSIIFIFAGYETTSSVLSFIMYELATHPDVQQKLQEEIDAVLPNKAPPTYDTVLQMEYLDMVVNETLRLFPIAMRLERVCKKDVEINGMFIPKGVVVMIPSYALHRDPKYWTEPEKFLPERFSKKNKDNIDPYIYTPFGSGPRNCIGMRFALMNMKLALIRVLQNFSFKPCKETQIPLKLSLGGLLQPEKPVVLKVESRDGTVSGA

[4] = test system: Streptococcus sp. 'group A'; assay: growth inhibition of control SK(-) GAS strain, dose response, counter-screen for streptokinase expression inhibitor project, luminescence, kanamycin, BacTiterGlo, confirmation (AID 1900); type: functional, organism-based
Streptokinase A = target: T3, Streptokinase A (Streptococcus pyogenes serotype M1, UniProt P10520); assay: S. pyogenes streptokinase expression inhibitors, potency, dose response, plasminogen activation absorbance, OD405 (AID 1914); type: functional, Streptococcus pyogenes M1 GAS;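 further: secreted streptokinase activity via plasminogen activation per viability signal from cell pellet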
T3 sequence (P10520 whole entry): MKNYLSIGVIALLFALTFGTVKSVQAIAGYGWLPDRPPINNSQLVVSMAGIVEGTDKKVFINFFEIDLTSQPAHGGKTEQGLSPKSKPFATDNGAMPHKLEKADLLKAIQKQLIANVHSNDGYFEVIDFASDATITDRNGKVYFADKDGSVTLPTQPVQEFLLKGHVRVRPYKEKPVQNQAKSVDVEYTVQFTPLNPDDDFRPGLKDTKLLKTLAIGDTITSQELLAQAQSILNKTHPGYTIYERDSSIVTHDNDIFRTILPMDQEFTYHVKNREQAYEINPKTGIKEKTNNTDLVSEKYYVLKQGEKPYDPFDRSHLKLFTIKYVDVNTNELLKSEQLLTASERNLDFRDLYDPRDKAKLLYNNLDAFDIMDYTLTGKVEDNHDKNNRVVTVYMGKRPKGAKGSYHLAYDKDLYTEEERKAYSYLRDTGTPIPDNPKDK

Streptococcus = assay: Group A Streptococcus viability loss, dose response, counter-screen for streptokinase expression inhibitor project, luminescence, BacTiterGlo (AID 1915); type: functional, organism-based;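 further: potency for reduction of bacterial viability or growth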
[5] = target: T4, Ubiquitin-conjugating enzyme E2 N (Homo sapiens, UniProt P61088); type: functional;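 further: Dose-response confirmation in a TR-FRET assay detecting UBC13-driven polyubiquitin chain formation, inhibition measured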
T4 sequence (P61088 whole entry): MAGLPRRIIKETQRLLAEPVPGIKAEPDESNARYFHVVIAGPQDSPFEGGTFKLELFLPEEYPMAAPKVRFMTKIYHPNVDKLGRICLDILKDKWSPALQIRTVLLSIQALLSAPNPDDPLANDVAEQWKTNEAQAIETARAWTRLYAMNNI

Vero = assay: cells; type: functional; conditions: Chlorocebus sabaeus
[6] = HEp-2 cell cytotoxicity, dose response, cytotoxicity control for RSV inhibitor project, HTS (AID 2410); type: functional; conditions: human respiratory syncytial virus
[7] = Shn3 3'UTR reporter inhibitors, dose response, cell-based, Clone20 osteoblasts, firefly luciferase, cherry-picked (AID 624132); type: functional;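 further: firefly luciferase luminescence from reporter carrying the Shn3 3'UTR in osteoblasts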
[8] = HepG2 cell cytotoxicity, dose response, cytotoxicity control for Shn3 inhibitor project, CellTiter-Glo, cherry-picked (AID 624134); type: functional, cell-based
[9] = control 3'UTR Renilla luciferase suppression, dose response, counter-screen for Shn3 inhibitor project, cell-based, Clone20-Shn3RL, cherry-picked (AID 624133); type: functional
[10] = inhibitors of intracellular T. cruzi replication, confirmation, NIH3T3 host cells, beta-gal luminescence (AID 2044); type: functional, cell-based;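 further: intracellular parasites grown in NIH/3T3 mouse fibroblasts as host cells; luminescent beta-galactosidase reporter signal from transgenic T. cruzi replicating inside host cells; inhibitors lower the luminescence signal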
[11] = cytotoxicity toward NIH3T3 fibroblasts, dose response, counter-screen, cell-based, ATP luminescence, mouse fibroblasts (AID 2010); type: functional;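 further: cells exposed to compound for about 90 hours before reading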
[12] = inhibitors of firefly luciferase expression or activity, dose response, H4 neuroglioma cells, luminescence (AID 1990); type: functional, cell-based
BJ [13] = assay: cytotoxicity toward BJ-TERT fibroblasts, dose response, cell-based, RAS-independent, luminescence (AID 1933); type: functional; conditions: Homo sapiens
[14] = Luminescence Cell-Based Dose Response HTS to Identify Inhibitors of 5'UTR Stem-Loop Driven Prion Protein mRNA Translation in H4 Neuroglioblastoma Cells. [Related pubchem assays: 1827 (Project Summary), 1813 (Primary HTS)]; type: functional
[15] = inhibitors of SNCA 5'UTR-driven reporter translation, confirmation, H4 neuroglioma cells, luminescence (AID 1988); type: functional, cell-based
BJ [16] = assay: cells; type: functional, cell-based; conditions: Homo sapiens
BJ [17] = assay: cytotoxicity toward BJ-TERT-LT-ST fibroblasts, dose response, cell-based, RAS-independent, luminescence (AID 1935); type: functional; conditions: Homo sapiens;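 further: BJ fibroblasts immortalized with TERT plus LT and ST oncogenes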
[18] = cytotoxicity toward DRD oncogenic fibroblasts, dose response, cell-based, non-viral oncogenic, luminescence (AID 1934); type: functional; conditions: Homo sapiens

T1 sequence (P11940 whole entry): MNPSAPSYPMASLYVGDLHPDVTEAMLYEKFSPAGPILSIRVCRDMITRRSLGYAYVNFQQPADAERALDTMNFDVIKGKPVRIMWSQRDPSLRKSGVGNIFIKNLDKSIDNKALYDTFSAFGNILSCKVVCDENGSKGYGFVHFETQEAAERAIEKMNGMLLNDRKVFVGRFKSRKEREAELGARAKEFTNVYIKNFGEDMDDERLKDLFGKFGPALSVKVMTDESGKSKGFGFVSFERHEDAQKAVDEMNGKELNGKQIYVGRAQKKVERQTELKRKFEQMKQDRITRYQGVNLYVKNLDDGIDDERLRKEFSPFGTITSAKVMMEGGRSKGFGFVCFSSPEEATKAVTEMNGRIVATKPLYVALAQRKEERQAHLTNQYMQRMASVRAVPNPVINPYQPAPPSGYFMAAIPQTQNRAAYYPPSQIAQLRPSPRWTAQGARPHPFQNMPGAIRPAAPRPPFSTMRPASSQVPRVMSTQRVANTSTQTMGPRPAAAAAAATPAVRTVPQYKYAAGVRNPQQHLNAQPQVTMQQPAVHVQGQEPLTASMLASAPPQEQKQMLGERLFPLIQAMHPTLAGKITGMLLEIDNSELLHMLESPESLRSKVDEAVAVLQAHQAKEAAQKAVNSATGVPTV

SMILES: Cc1nnc(O)c2c(NC(=O)CSc3c(Cl)cccc3Cl)oc(C)c12
- IC50 [1]: > 66 µM (inactive)
- IC50 [2]: > 66 µM (inactive)

SMILES: Cc1ccc(S(=O)(=O)N[C@H]2COC(=O)C/C=C\[C@@H](C)[C@H](NS(=O)(=O)c3ccc(C)cc3)COC(=O)[C@H](C)NC(=O)C/C=C\[C@H]2C)cc1
- AC50 (Cytochrome P450 2C19): inconclusive
- AC50 (Cytochrome P450 2D6): 3.98 µM (inconclusive)

SMILES: O=C(N/N=C/c1cc(Br)c(Br)o1)c1cccnc1
- IC50 [1]: > 66 µM (inactive)
- IC50 [2]: 44.3 µM (inactive)

SMILES: CC1=CC(=O)C=C(C)C1=NOC(=O)/C=C\c1ccccc1
- EC50 [3]: > 260 µM (inactive)

SMILES: Cc1cnc(CNc2nc(-c3ccccc3Cl)nc3ccccc23)cn1
- AC50 (Cytochrome P450 2D6): 25.1 µM (inconclusive)
- AC50 (Cytochrome P450 3A4): 7.94 µM (inconclusive)

SMILES: O=[N+]([O-])c1cccc(-c2ccc3nnc(SCc4ccccn4)n3n2)c1
- EC50 [3]: > 260 µM (inactive)

SMILES: Cc1nc2[nH]c(=S)[nH]c(=O)c2nc1C
- IC50 [1]: > 66 µM (inactive)
- IC50 [2]: > 66 µM (inactive)

SMILES: CC(C)(C)c1ccc(C(=O)N/N=C/c2ccccn2)cc1
- EC50 [4]: 9.57 µM (active)
- EC50 (Streptokinase A): > 150 µM (not active)
- EC50 (Streptococcus): 29.8 µM (active)
- IC50 [5]: > 20 µM (inactive)

SMILES: COc1ccc(Cl)cc1C=CC=NNS(=O)(=O)c1ccc(C)cc1
- CC50 (Vero): > 25 µM (active)

SMILES: O=C(Nc1ccc2c(c1)CCCN2C(=O)c1ccccc1)c1ccccc1Br
- CC50 [6]: 10.5 µM (active)
- CC50 (Vero): > 25 µM (active)

SMILES: c1ccc(Nc2ncncc2-c2ccoc2)cc1
- AC50 (Cytochrome P450 2C19; read-out: AC50): 15.8 µM (inconclusive)
- AC50 (Cytochrome P450 2D6): 25.1 µM (inconclusive)

SMILES: O=c1c2ccccc2nnn1CSc1ccc2c(c1)OCCO2
- AC50 (Cytochrome P450 2D6): 28.2 µM (inconclusive)

SMILES: COc1ccc(C(=S)N2CCN(c3ccccc3Cl)CC2)cc1OC
- IC50 [1]: > 66 µM (inactive)
- IC50 [2]: > 66 µM (inactive)

SMILES: Cn1c(Cn2nnc3ccccc32)nnc1SCC(=O)c1ccccc1F
- EC50 [3]: > 260 µM (inactive)

SMILES: COC(=O)c1sc(N)c(C(=O)OC)c1CSc1nc2sc3c(c2c(=O)n1C)CCC3
- EC50 [3]: > 260 µM (inactive)

SMILES: C=CCOC(=O)/C(=C\c1cccc2ccccc12)NC(=O)c1ccccc1
- AC50 (Cytochrome P450 2D6): 22.4 µM (inconclusive)

SMILES: CCCCCCC1NC(C(=O)O)CS1 (configuration not stated)
- IC50 [1]: > 66 µM (inactive)
- IC50 [2]: > 66 µM (inactive)

SMILES: CSc1ccccc1-n1nnnc1SCC(=O)NCc1cccs1
- EC50 [3]: > 260 µM (inactive)

SMILES: COc1cccc(Cn2c(=O)cnc3cnc(OCc4ccccc4)nc32)c1
- AC50 (Cytochrome P450 2D6): 39.8 µM (inconclusive)

SMILES: N#C/C(C[n+]1cn(NC(=O)Nc2ccccc2)cn1)=N/O
- EC50 [3]: > 260 µM (inactive)

SMILES: CC1=NCCc2c1[nH]c1cc(O)ccc21
- AC50 (Cytochrome P450 2D6): 7.94 µM (inconclusive)

SMILES: Cn1c(/C=C/c2ccc(Cl)cc2Cl)c([N+](=O)[O-])c(=O)n(C)c1=O
- CC50 [6]: 37.5 µM (active)
- CC50 (Vero): 20.5 µM (active)
- AC50 [7]: 6.87 µM (active)
- AC50 [8]: 64.4 µM (active)
- AC50 [9]: 8.75 µM (active)

SMILES: COc1cc(OCc2ccccc2)c(C(=O)/C=C/c2ccc3c(c2)OCO3)c(OC)c1OC
- CC50 (Vero): > 25 µM (active)

SMILES: C=CCN(C(=O)CCC(=O)Nc1cc(C)on1)C(C(=O)NC(C)(C)C)c1cccc(OC)c1OC (configuration not stated)
- EC50 [3]: > 260 µM (inactive)

SMILES: CSc1nccc(Nc2ccccc2)c1C#N
- IC50 [5]: > 20 µM (inactive)

SMILES: CCOC(=O)N1CCN(C(=O)c2ccc3c(c2)N(Cc2ccccc2)CCS3)CC1
- IC50 [5]: > 20 µM (inactive)

SMILES: Cc1ccc(Cc2cnc(NC(=O)c3cccs3)s2)cc1
- AC50 (Cytochrome P450 2D6): 15.8 µM (inconclusive)

SMILES: COCCCN(CC(=O)O)S(=O)(=O)c1cccc(Cl)c1
- EC50 [3]: > 260 µM (inactive)

SMILES: Cc1ccc2c(c1)c1nnc(S)nc1n2CCc1ccccc1
- EC50 [10]: 2.1 µM (active)
- EC50 [11]: > 60 µM (not active)
- IC50 [1]: > 66 µM (inactive)
- IC50 [2]: > 66 µM (inactive)

SMILES: Cc1cc(C)cc(Oc2ccccc2/C=C\C(=O)O)c1
- EC50 [3]: > 260 µM (inactive)

SMILES: CCOC(=O)c1c(C)sc2c1N(C(=O)CN(CC)CC)c1ccccc1S2
- EC50 [3]: > 260 µM (inactive)

SMILES: COc1cc(NC(=O)C2=C(N3CCOCC3)/C(=C\c3ccc(Br)cc3)CC2)cc(OC)c1OC
- EC50 [3]: > 260 µM (inactive)

SMILES: CCN1CCN(S(=O)(=O)c2ccc(Cl)nc2)CC1
- AC50 (Cytochrome P450 2D6): 12.6 µM (inconclusive)

SMILES: CSc1nc(C)cc(Nc2ccc(O)c(CN3CCCCC3)c2)n1
- AC50 (Cytochrome P450 2D6): 3.16 µM (inconclusive)

SMILES: Cc1ccc(C(=O)Nc2nnc(C3CCCCC3)s2)o1
- EC50 [3]: 44.6 µM (active)

SMILES: O=C(CCCN1C(=O)CCC1=O)Nc1ccccc1F
- IC50 [1]: > 66 µM (inactive)
- IC50 [2]: > 66 µM (inactive)

SMILES: CN(C)CCCN(C(=O)c1ccco1)c1nc2ccc(Cl)cc2s1
- CC50 (Vero): > 25 µM (active)

SMILES: Cc1cccn2c(=O)c3cc(C(=O)NC4CCCC4)c(=N)n(Cc4ccc(F)cc4)c3nc12
- CC50 (Vero): > 25 µM (active)

SMILES: Cc1cc(C=O)c(C)n1-c1ccc(NC2CCCC2)c([N+](=O)[O-])c1
- AC50 (Cytochrome P450 2D6): 8.91 µM (inconclusive)

SMILES: Cc1cccc(N(C(=O)c2snc(C(N)=O)c2N)C(C(=O)NC2CCCC2)c2ccc(C)o2)c1 (configuration not stated)
- IC50 [5]: > 20 µM (inactive)

SMILES: N#Cc1sc2nc(N3CCCCC3)c3c(c2c1N)CCCC3
- CC50 (Vero): > 25 µM (active)

SMILES: COc1ccc(-c2c/c(=N\c3nc(-c4ccccc4)c(C)s3)c3ccccc3o2)cc1O
- EC50 [12]: 5.76 µM (inconclusive)
- EC50 [4]: 4.5 µM (active)
- EC50 (BJ [13]): 1.71 µM (active)
- EC50 [14]: 5.8 µM (active)
- EC50 [15]: 7.32 µM (active)
- EC50 (Streptokinase A): 15.5 µM (active)
- EC50 (BJ [16]): 3.22 µM (active)
- EC50 (BJ [17]): 1.82 µM (active)
- EC50 [18]: 1.9 µM (active)
- EC50 (Streptococcus): > 150 µM (not active)
- CC50 (Vero): 3.22 µM (active)
